According to patent US5716627A, “Skin care compositions containing fatty acid amides, azoles, and retinol or retinyl ester” (Elizabeth Arden Co., Division of Conopco, Inc., priority 1996, dated 1998):
“Also recorded” adds a separate entry of the source. Where two headings read alike, the source gives them in different places.

How the values were obtained:
[1] = system: TGase I; test: Transglutaminase (TGase I) ELISA in cultured keratinocytes, normalized to DNA content (keratinocyte differentiation); assay type: cell-based, human; conditions: for Mean TGase/DNA X 10^-4 ± S.D.: n = 3; for mean TGase/DNA × 10^4 ± s.d: Table 3B
Description: Human keratinocytes, isolated from neonatal foreskin by trypsin treatment were grown in Dulbecco Modification Eagle (DME) Hams F12 (1:1) medium/10% fetal calf serum in the presence of irradiated 3T3 mouse fibroblasts for establishing dividing keratinocyte colonies. Cells were grown under the above condition until their second passage and kept frozen for future use. Frozen second passage keratinocytes were thawed and plated into the above medium and grown for five days before they were switched to a serum-free MCDB 153-based medium keratinocyte growth medium (KGM) from Clonetics Corporation, San Diego, Calif., containing 0.15 mM Ca, or keratinocyte serum-free media (KSFM) from GIBCO containing 0.09 mM Ca). On day 7, when the cells were 80-90% confluent, they were trypsinized and plated in the serum-free medium for the various experiments.
During the process of terminal differentiation in the epidermis, a 15 nm thick layer of protein, known as the cornified envelope (CE) is formed on the inner surface of the cell periphery. The CE is composed of numerous distinct proteins which have been cross-linked together by the formation of N^ε -(γ-glutamyl) lysine isodipeptide bonds catalyzed by the action of at least two different transglutaminases (TGases) expressed in the epidermis. TGase I is expressed in abundance in the differentiated layers of the epidermis, especially the granular layer, but is absent in the undifferentiated basal epidermis. Thus TGase I is a useful marker of epidermal keratinocyte differentiation with high TGase I levels indicating a more differentiated state. An ELISA based TGase I assay, using a TGase I antibody, was used to assess the state of differentiation of the cultured keratinocytes in the examples that follow.
Keratinocytes (cultured as described above) were plated in 96 well plates at a density of 3,000 cells per well in 200 μl media. After incubation for four days the media was changed to media containing test compounds (six replicates per test). The cells were cultured for a further 72 hours after which time the media was aspirated and the plates stored at -70° C. Plates were removed from the freezer, and the cells washed with PBS. 100 μl sterile water was added and the cells were freeze fractured by freezing at -70° C. then thawing. The cells were incubated for one hour at room temperature (R/T) with PBS/3% BSA (wash buffer, bovine serum albumin), then rinsed with a fresh aliquot of wash buffer. Cells were incubated with 50 μl of primary antibodies monoclonal anti-human transglutaminase (IgG) obtained from Amersham (mouse) diluted 1:300 in wash buffer for one hour, 37° C. then rinsed two times with wash buffer. Cells were then incubated with 50 μl of secondary antibody (Feb fragment, peroxidase conjugated anti-mouse IgG obtained from Amersham) diluted 1:200 in wash buffer for one hour at 37° C., then rinsed two times with wash buffer. Cells were incubated with substrate solution (4 mg o-phenylene diamine and 3.3 μl 30% H2 O2 in 10 ml 0.1M citrate buffer pH 5.0) for five minutes, R/T, in darkness (under aluminum foil). The reaction was stopped by the addition of 50 μl 4N H2 SO4. The absorbance of samples was read at 492 nm in the plate reader. Out of the six replicates, four were treated with both antibodies, two were treated only with the secondary antibody (i.e., to determine background binding of enzyme conjugated Ab). TGase levels were determined by subtracting background from the readings from each treatment and determining mean ±s.d. for the replicates exposed to both Ab.
The level of TGase-1 detected after treatment of the cells could be influenced by cell number, i.e., the greater the number of cells the greater the level of TGase-1 detected. The level of TGase-1 was normalized to DNA content of the cells in the same well thus eliminating variation due to differences in cell number. […]

[2] = system: Human keratinocytes; test: 3H-thymidine incorporation by cultured keratinocytes (keratinocyte proliferation); assay type: cell-based; conditions: for activation at 0.0025 µM: 2.5×10^-9 M RA
Description: Human keratinocytes, isolated from neonatal foreskin by trypsin treatment were grown in Dulbecco Modification Eagle (DME) Hams F12 (1:1) medium/10% fetal calf serum in the presence of irradiated 3T3 mouse fibroblasts for establishing dividing keratinocyte colonies. Cells were grown under the above condition until their second passage and kept frozen for future use. […] On day 7, when the cells were 80-90% confluent, they were trypsinized and plated in the serum-free medium for the various experiments.
The incorporation of ^3 H-thymidine by cultured keratinocytes was used as an assay of keratinocyte proliferation. Thymidine is one of four deoxynucleosides which are the monomeric units of DNA, the universal library of genetic information in the animal kingdom. Prior to cell division of a somatic cell such as a keratinocyte, the complete genome of the cell undergoing cell division is replicated. This involves large scale DNA synthesis by the cell and enables both daughter cells to receive identical copies of the genetic material. When ^3 H-thymidine is included in the culture media of keratinocytes which are synthesizing DNA in preparation for cell division then the labelled nucleoside is incorporated into the newly synthesized DNA. The extent of incorporation of ^3 H-thymidine into a population of cells is proportional to the rate of DNA synthesis by this population of cells and therefore an indication of their cellular proliferation.
Keratinocytes (that were cultured as described above) were plated in 24 well plates at a density of 40,000 cells per well in 1 ml media. After incubation for four days or until the cells were 60-70% confluent, the media was changed. Test compounds were added (in triplicate) to the wells 24 hours after the media change, and four hours later 1 μCi ^3 H-Thymidine in 50 μl media was added per well. Cells were incubated for a further 24 hours. Media was removed from the cells, 10% ice cold trichloroacetic acid (TCA) added and plates were incubated on ice for 30 minutes. Cells were washed five times with 5% TCA and allowed to dissolve in 500 μl 0.1M NaOH for at least one hour (usually overnight). The preparations were neutralized with 0.1M HCl; 50 μl of the cell preparation was used to determine total protein content. Disintegrations per minute (DPM) from ^3 H labelling of DNA was determined by liquid scintillation counting of 900 μl of the cell preparation. Thymidine incorporation results were expressed as DPM/μg protein.

[3] = Examples 1-4, overall conclusion

CC1=C(/C=C/C(C)=C/C=C/C(C)=C/C(=O)O)C(C)(C)CCC1 [RA, retinoic acid]
effect on transglutaminase level / keratinocyte differentiation (in words) ([1]; Example 1, 2.5×10^-7 M, 2.5×10^-8 M and 2.5×10^-9 M): decreased keratinocyte differentiation over both the ethanol control and each of the retinol treatments; also recorded: dose dependent | effect on keratinocyte TG1 level / differentiation (in words) ([1]; Example 2, 2.5×10^-8 M RA or retinol, 10^-8 M LAMEA, 10^-8 M bifonazole, 72 hour): very effective at repressing keratinocyte TG1 levels | effect on keratinocyte TG1 level / differentiation (in words) ([1]; Example 3, 2.5×10^-7 M RA, 2.5×10^-9 M retinol with 10^-8 M LADEA and/or climbazole, 72 hour): very effective at repressing keratinocyte TG1 levels | effect on keratinocyte differentiation (in words) [1, 3]: decreased keratinocyte differentiation | TGase/DNA (% Control) ([1]; Table 1B, 2.5 × 10^-7 M, 72 hours, 0.25 µM): 7% | Mean TGase/DNA X 10^-4 ± S.D. ([1]; Table 1B, 2.5 × 10^-7 M, 72 hours): 0.16 ± 0.11 X 10^-4 | TGase/DNA (% Control) ([1]; Table 1B, 2.5 × 10^-8 M, 72 hours, 0.025 µM): 55% | Mean TGase/DNA X 10^-4 ± S.D. ([1]; Table 1B, 2.5 × 10^-8 M, 72 hours): 1.34 ± 0.40 X 10^-4 | TGase/DNA (% Control) ([1]; Table 1B, 2.5 × 10^-9 M, 72 hours, 0.0025 µM): 77% | Mean TGase/DNA X 10^-4 ± S.D. ([1]; Table 1B, 2.5 × 10^-9 M, 72 hours): 1.87 ± 0.49 X 10^-4 | TGase/DNA (% Control) ([1]; Table 2B and Example 2B text, 2.5×10^-8 M RA or retinol, 10^-8 M LAMEA, 10^-8 M bifonazole where named, 72 hour): 13% | mean TGase/DNA × 10^-4 ± s.d ([1]; Table 2B, 2.5 × 10^8 M [sic] RA or ROH, 10^8 M LA-MEA, 10^8 M Bifonazole where named, 72 hour, n = 6): 0.017 ± 0.010 × 10^-4 | TGase/DNA (% Control) ([1]; Table 3B and Example 3B, 2.5×10^-9 M RA or ROH, with 10^-8 M LADEA and/or 10^-8 M climbazole where named, 72 hour): 55% | TGase/DNA (% Control) ([1]; Table 3B and Example 3B, RA at 2.5×10^-7 M (table: 2.5 × 10^7 M), 72 hour, 0.25 µM): 29% | mean TGase/DNA × 10^4 ± s.d ([1]; 2.5 × 10^9 M [sic] RA or ROH, with 10^8 M LA-DEA and/or 10^8 M Climbazole where named, 72 hour, n = 6): 0.84 ± 0.59 × 10^4 | mean TGase/DNA × 10^4 ± s.d ([1]; RA at 2.5 × 10^7 M [sic], 72 hour, n = 6): 0.44 ± 0.71 × 10^4 | effect on keratinocyte proliferation (in words) ([2]; Example 1, 2.5×10^-7 M, 2.5×10^-8 and 2.5×10^-9 M, vs ethanol control and retinol): significantly increased keratinocyte proliferation over both the ethanol control and each of the 2.5×10^-7 M, 2.5×10^-8 M and 2.5×10^-9 M retinol treatments; also recorded: dose dependant manner | effect on keratinocyte proliferation (in words) [2, 3]: increased keratinocyte proliferation | activity at 0.25 µM ([2]; Homo sapiens, Keratinocyte, 24 h, Table 1A, 2.5 × 10^-7 M, 24 hours, read-out: Thymidine incorporation (% control)): 118% | activity at 0.025 µM ([2]; Homo sapiens, Keratinocyte, 24 h, Table 1A, 2.5 × 10^-8 M, 24 hours, read-out: Thymidine incorporation (% control)): 128% | activity at 0.0025 µM ([2]; Homo sapiens, Keratinocyte, 24 h, Table 1A, 2.5 × 10^-9 M, 24 hours, read-out: Thymidine incorporation (% control)): 122% | activity at 0.0025 µM ([2]; Homo sapiens, Keratinocyte, 24 h, Table 2A, 2.5 × 10^-9 M RA or ROH, with 10^-8 M LADEA and/or 10^-9 M Bifonazole where named, 24 hours, read-out: Thymidine incorporation (% control)): 127% | activity at 0.25 µM ([2]; Homo sapiens, Keratinocyte, 24 h, Table 3A, RA at 2.5 × 10^7 M [sic], read-out: Thymidine incorporation (% control)): 130% | activation at 0.0025 µM ([2]; Homo sapiens, Keratinocyte, read-out: increase in keratinocyte thymidine incorporation / proliferation over the ethanol control, Example 2, or 2.5×10^-9 M retinol+10^-8 M linoleamide-DEA+10^-9 M bifonazole): 27% | activation at 0.25 µM ([2]; Homo sapiens, Keratinocyte, read-out: increase in keratinocyte thymidine incorporation / proliferation over the ethanol control, Example 3, 2.5×10^-7 M RA, or 2.5×10^-8 M retinol+10^-8 M linoleamide-DEA+10^-9 M climbazole): 30% | activation at 0.0025 µM ([2]; Homo sapiens, Keratinocyte, read-out: increase in keratinocyte thymidine incorporation / proliferation over the ethanol control, Example 4, or 2.5×10^-9 M retinol+10^-8 M linoleamide-MEA+10^-8 M clotrimazole): 28% | mean Thymidine incorp./μg protein ± s.d ([2]; Table 1A, 2.5 × 10^-7 M, 24 hours, n = 3): 2475 ± 116 DPM/μg protein | mean Thymidine incorp./μg protein ± s.d ([2]; Table 1A, 2.5 × 10^-8 M, 24 hours, n = 3): 2686 ± 72 DPM/μg protein | mean Thymidine incorp./μg protein ± s.d ([2]; Table 1A, 2.5 × 10^-9 M, 24 hours, n = 3): 2556 ± 80 DPM/μg protein | mean Thymidine incorp. μg protein ± s.d ([2]; Table 2A, 2.5 × 10^-9 M RA or ROH, with 10^-8 M LADEA and/or 10^-9 M Bifonazole where named, 24 hours, n = 3): 5569 ± 248 DPM/μg protein | mean Thymidine incorp/μg protein ± s.d ([2]; Table 3A, RA at 2.5 × 10^7 M [sic], n = 3): 4845 ± 95 DPM/μg protein
